Laboratory results published in patent publication US20250188033A1, “INHIBITOR OF REPLICATION PROTEIN A1 OF TRYPANOSOMA BRUCEI AND METHOD OF USE THEREOF” (Research Foundation of the City University of New York, published 2025).

Tested on: Trypanosoma brucei
Test: ALAMARBLUE cell viability / growth assay of T. brucei cells
Type: cell-based
Conditions: T. brucei, 72 hours, normalized to DMSO control; for inhibition at 2 µM / inhibition at 5 µM: Trypanosoma brucei
Description: To determine cell growth rate, WT and two TbRPA1 RNAi KD strains (KD1 and KD2) were seeded at a density of 1×10^5 cells/ml and cultured with or without tetracycline for the induction of RNAi. Cells were counted every 12 hours for 2 days. To determine the viability of TbRPA1-depleted cells, ALAMARBLUE® assay (Thermo Fisher, an established colorimetric technique that detects metabolically active cells) was used. Cells from each time point were incubated with ALAMARBLUE® dye for 4-6 hours and percentage of live cells was determined by measuring resorufin converted from resazurin by reducing environment of live cells. Synergy H1 microplate reader (BioTek) was used with 560/590 nm (excitation/emission) filter settings and Relative Fluorescence Unit (RFU) values were obtained. The percentage of viable cells were calculated from the RFU values.
The initial assessment of JC-229's inhibitory effect on T. brucei cell growth was performed at 50 μM concentration. Trypanosome cells were seeded at 1×10^3 cells/ml density in 180 μl in a 96-well culture plate in triplicate. These cells were incubated with 50 μM JC-229 for 24, 48, and 72 hours. DMSO was used as a vehicle control at 0.0075%. JC-229-treated culture and control cultures were analyzed with the ALAMARBLUE® dye as described above.
To obtain the EC50 value of JC-229, T. brucei cells were seeded at 1×10^3 cells/ml density in 180 μl in a 96-well culture plate in triplicate. These cells were incubated for 72 hours with increasing concentrations of JC-229, (0.5 μM to 50 μM) and cell viability was determined using the ALAMARBLUE® dye as described above.
Trypanosoma brucei cytotoxicity of JC-229 and analogs were measured using ALAMARBLUE® assay (Rampersad, S. N. Multiple applications of ALAMARBLUE® as an indicator of metabolic function and cellular health in cell viability bioassays. Sensors (Basel) 12, 12347-12360 (2012). Trypanosome cells were seeded at 1×10^3 cells/ml density in 180 μl in a 96-well culture plate in triplicate. These cells were incubated with indicated concentration of JC compounds for 72 hours. DMSO was used as a vehicle control at 0.0075%. JC compound-treated cultures were then incubated with ALAMARBLUE® dye for 4-6 hours and percentage of live cells was determined using Synergy H1 microplate reader (BioTek) with 560/590 nm (excitation/emission) filter settings and Relative Fluorescence Unit (RFU) values were obtained. The percentage of viable cells were calculated from the RFU values by normalizing to DMSO treated control. In one embodiment, the inhibitor is characterized in that it provides at least 50%, at least 80% or at least 90% inhibition at a concentration of 5 μM when tested in accordance with the above conditions.

`Cc1ccc(C(=O)Nc2ccc(Cl)c(Cl)c2)cc1S(=O)(=O)N1CCCC(NC(=O)c2ccccc2)C1` (stereo not shown) [JC-931] was tested, and the “% Inhibition @2 μM” value was 3%, the “% Inhibition @5 μM” value was 98.5% and the “% Inhibition @10 μM” value was 100%.
With `Cc1ccc(C(=O)Nc2ccc(Cl)c(Cl)c2)cc1S(=O)(=O)NCCCNC(=O)OC(C)(C)C` [JC-932] the “% Inhibition @2 μM” value was 7% and the “% Inhibition @10 μM” value was 73%.
For `Cc1ccc(C(=O)Nc2ccc(Cl)c(Cl)c2)cc1S(=O)(=O)NCCCN.O=C(O)C(F)(F)F` [JC-933], the “% Inhibition @2 μM” value was 5% and the “% Inhibition @10 μM” value was 60%.
With `Cc1ccc(C(=O)Nc2ccc(Cl)c(Cl)c2)cc1S(=O)(=O)NCCCNC(=O)Cc1ccccc1` [JC-934] the “% Inhibition @2 μM” value was 11% and the “% Inhibition @10 μM” value was 34%.
In the case of `Cc1ccc(C(=O)Nc2ccc(Cl)c(Cl)c2)cc1S(=O)(=O)NCCCNC(=O)c1ccccc1` [JC-935], the “% Inhibition @2 μM” value is reported as 3% and the “% Inhibition @10 μM” value is reported as 19%.
With `Cc1ccc(C(=O)Nc2ccc(Cl)c(Cl)c2)cc1S(=O)(=O)C1CCCNC1.O=C(O)C(F)(F)F` (stereo not shown) [JC-951] the “% Inhibition @2 μM” value was 29% and the “% Inhibition @5 μM” value was 100%.
In the case of `Cc1ccc(C(=O)Nc2ccc(Cl)c(Cl)c2)cc1S(=O)(=O)NCCNC(=O)Cc1ccccc1` [JC-953], the “% Inhibition @2 μM” value is reported as −34% and the “% Inhibition @5 μM” value is reported as 32%.
In the case of `Cc1ccc(C(=O)Nc2ccc(Cl)c(Cl)c2)cc1S(=O)(=O)C1CCCC(NC(=O)OC(C)(C)C)C1` (stereo not shown) [JC-954], the “% Inhibition @2 μM” value is reported as 10% and the “% Inhibition @5 μM” value is reported as 35%.
For `Cc1ccc(C(=O)Nc2ccc(Cl)c(Cl)c2)cc1S(=O)(=O)C1CCCC(N)C1` (stereo not shown) [JC-955], the “% Inhibition @2 μM” value was 25% and the “% Inhibition @5 μM” value was 100%.
For `Cc1ccc(C(=O)Nc2ccc(Cl)c(Cl)c2)cc1S(=O)(=O)NC1CC(NC(=O)OC(C)(C)C)C1` (stereo not shown) [JC-956], the “% Inhibition @2 μM” value was −32% and the “% Inhibition @5 μM” value was 19%.
`Cc1ccc(C(=O)Nc2ccc(Cl)c(Cl)c2)cc1S(=O)(=O)NC1CC(N)C1` (stereo not shown) [JC-957] was tested, and the “% Inhibition @2 μM” value was −30% and the “% Inhibition @5 μM” value was 84%.
With `Cc1ccc(C(=O)Nc2ccc(Cl)c(Cl)c2)cc1S(=O)(=O)N1CCCC(N)C1.O=C(O)C(F)(F)F` (stereo not shown) [JC-959] the “% Inhibition @2 μM” value was 64% and the “% Inhibition @5 μM” value was 100%.
For `Cc1ccc(C(=O)Nc2ccc(Cl)c(Cl)c2)cc1S(=O)(=O)N1CCCC(NC(=O)OC(C)(C)C)C1` (stereo not shown) [JC-962], the “% Inhibition @2 μM” value was 36% and the “% Inhibition @5 μM” value was 100%.
Work on `Cc1ccc(C(=O)Nc2ccc(Cl)c(Cl)c2)cc1S(=O)(=O)N1CCC[C@@H](N)C1` [JC-963] yielded an inhibition at 2 µM of 96% and an inhibition at 5 µM of 100%.
For `Cc1ccc(C(=O)Nc2ccc(Cl)c(Cl)c2)cc1S(=O)(=O)N1CCCC(NS(C)(=O)=O)C1` (stereo not shown) [JC-964], the “% Inhibition @2 μM” value was −16% and the “% Inhibition @5 μM” value was −23%.
`Cc1ccc(C(=O)Nc2ccc(Cl)c(Cl)c2)cc1S(=O)(=O)N1CCCC(NC(=S)Nc2ccc(F)cc2)C1` (stereo not shown) [JC-965] was tested, and the “% Inhibition @2 μM” value was 64% and the “% Inhibition @5 μM” value was 100%.
For `Cc1ccc(C(=O)Nc2ccc(Cl)c(Cl)c2)cc1S(=O)(=O)N1CCC(NC(=O)c2ccccc2)CC1` [JC-966], the “% Inhibition @2 μM” value was 13% and the “% Inhibition @5 μM” value was 0%.
With `Cc1ccc(C(=O)Nc2ccc(Cl)c(Cl)c2)cc1S(=O)(=O)N1CCC(NC(=O)Cc2ccccc2)CC1` [JC-967] the “% Inhibition @2 μM” value was 15% and the “% Inhibition @5 μM” value was −24%.
With `Cc1ccc(C(=O)Nc2ccc(Cl)c(Cl)c2)cc1S(=O)(=O)N1CCC(NC(=O)CCc2ccccc2)CC1` [JC-968] the “% Inhibition @2 μM” value was 1% and the “% Inhibition @5 μM” value was 5%.
In the case of `Cc1ccc(C(=O)Nc2ccc(Cl)c(Cl)c2)cc1S(=O)(=O)N1CCC(NS(C)(=O)=O)CC1` [JC-969], the “% Inhibition @2 μM” value is reported as 18% and the “% Inhibition @5 μM” value is reported as −4%.
Molecule `Cc1ccc(C(=O)Nc2ccc(Cl)c(Cl)c2)cc1S(=O)(=O)N1CCC(NC(=S)Nc2ccc(F)cc2)CC1` [JC-970] has an inhibition at 2 µM of 100% and an inhibition at 5 µM of 100%.
For `Cc1ccc(C(=O)Nc2ccc(Cl)c(Cl)c2)cc1S(=O)(=O)NCCNS(=O)(=O)c1ccc(CBr)cc1` [JC-993], the “% Inhibition @2 μM” value was 76% and the “% Inhibition @5 μM” value was 100%.
With `Cc1ccc(C(=O)Nc2ccc(Cl)c(Cl)c2)cc1S(=O)(=O)NCCNS(=O)(=O)c1cccc(Br)c1` [JC-994] the “% Inhibition @2 μM” value was −17% and the “% Inhibition @5 μM” value was 61%.
In the case of `Cc1ccc(C(=O)Nc2ccc(Cl)c(Cl)c2)cc1S(=O)(=O)NCCNS(=O)(=O)c1ccc(Br)cc1C(F)(F)F` [JC-995], the “% Inhibition @2 μM” value is reported as −34% and the “% Inhibition @5 μM” value is reported as 93%.
For `Cc1ccc(C(=O)Nc2ccc(Cl)c(Cl)c2)cc1S(=O)(=O)NCCNS(=O)(=O)c1cccc(F)c1` [JC-996], the “% Inhibition @2 μM” value was −19% and the “% Inhibition @5 μM” value was 69%.
For `Cc1ccc(C(=O)Nc2ccc(Cl)c(Cl)c2)cc1S(=O)(=O)NCCNS(=O)(=O)c1ccc(OCc2ccccc2)cc1` [JC-997], the “% Inhibition @2 μM” value was −9% and the “% Inhibition @5 μM” value was 92%.
In the case of `Cc1ccc(C(=O)Nc2ccc(Cl)c(Cl)c2)cc1S(=O)(=O)NCCCNS(=O)(=O)c1ccc(Br)cc1` [JC-998], the “% Inhibition @2 μM” value is reported as 0% and the “% Inhibition @5 μM” value is reported as 100%.
`COc1ccc(NC(=S)NCCNS(=O)(=O)c2cc(C(=O)Nc3ccc(Cl)c(Cl)c3)ccc2C)cc1` [JC-999] was tested, and the “% Inhibition @2 μM” value was −7% and the “% Inhibition @5 μM” value was −6%.
`Cc1ccc(C(=O)Nc2ccc(Cl)c(Cl)c2)cc1S(=O)(=O)NCCNC(=S)Nc1cccc(C(F)(F)F)c1` [JC-1000] was tested, and the “% Inhibition @2 μM” value was 21% and the “% Inhibition @5 μM” value was 58%.
For `Cc1ccc(C(=O)Nc2ccc(Cl)c(Cl)c2)cc1S(=O)(=O)NCCNC(=S)Nc1ccccc1F` [JC-1001], the “% Inhibition @2 μM” value was 49% and the “% Inhibition @5 μM” value was 66%.
In the case of `Cc1ccc(C(=O)Nc2ccc(Cl)c(Cl)c2)cc1S(=O)(=O)NCCNC(=S)Nc1ccc(Cl)c(Cl)c1` [JC-1002], the “% Inhibition @2 μM” value is reported as 34% and the “% Inhibition @5 μM” value is reported as 100%.
For `Cc1ccc(C(=O)Nc2ccc(Cl)c(Cl)c2)cc1S(=O)(=O)NCCNC(=S)Nc1ccc(C(F)(F)F)cc1` [JC-1003], the “% Inhibition @2 μM” value was 0% and the “% Inhibition @5 μM” value was 80%.
`COc1ccc(NC(=S)NC2CCCN(S(=O)(=O)c3cc(C(=O)Nc4ccc(Cl)c(Cl)c4)ccc3C)C2)cc1` (stereo not shown) [JC-1004] was tested, and the “% Inhibition @2 μM” value was 32% and the “% Inhibition @5 μM” value was 94%.
In the case of `Cc1ccc(C(=O)Nc2ccc(Cl)c(Cl)c2)cc1S(=O)(=O)N1CCCC(NC(=S)Nc2cccc(C(F)(F)F)c2)C1` (stereo not shown) [JC-1005], the “% Inhibition @2 μM” value is reported as 100% and the “% Inhibition @5 μM” value is reported as 100%.
For `Cc1ccc(C(=O)Nc2ccc(Cl)c(Cl)c2)cc1S(=O)(=O)N1CCCC(NC(=S)Nc2ccccc2F)C1` (stereo not shown) [JC-1006], the “% Inhibition @2 μM” value was 17% and the “% Inhibition @5 μM” value was 101%.
With `Cc1ccc(C(=O)Nc2ccc(Cl)c(Cl)c2)cc1S(=O)(=O)N1CCCC(NC(=S)Nc2ccc(Cl)c(Cl)c2)C1` (stereo not shown) [JC-1007] the “% Inhibition @2 μM” value was 100% and the “% Inhibition @5 μM” value was 101%.
`Cc1ccc(C(=O)Nc2ccc(Cl)c(Cl)c2)cc1S(=O)(=O)N1CCCC(NC(=S)Nc2ccc(C(F)(F)F)cc2)C1` (stereo not shown) [JC-1008] was tested, and the “% Inhibition @2 μM” value was 100% and the “% Inhibition @5 μM” value was 100%.
For `Cc1ccc(C(=O)Nc2ccc(Cl)c(Cl)c2)cc1S(=O)(=O)N1CCC(NS(=O)(=O)c2ccc(CBr)cc2)CC1` [JC-1009], the “% Inhibition @2 μM” value was 99% and the “% Inhibition @5 μM” value was 100%.
For `Cc1ccc(C(=O)Nc2ccc(Cl)c(Cl)c2)cc1S(=O)(=O)N1CCC(NS(=O)(=O)c2cccc(Br)c2)CC1` [JC-1010], the “% Inhibition @2 μM” value was 9% and the “% Inhibition @5 μM” value was −15%.
For `Cc1ccc(C(=O)Nc2ccc(Cl)c(Cl)c2)cc1S(=O)(=O)N1CCC(NS(=O)(=O)c2ccc(Br)cc2C(F)(F)F)CC1` [JC-1011], the “% Inhibition @2 μM” value was 63% and the “% Inhibition @5 μM” value was 101%.
With `Cc1ccc(C(=O)Nc2ccc(Cl)c(Cl)c2)cc1S(=O)(=O)N1CCC(NS(=O)(=O)c2cccc(F)c2)CC1` [JC-1012] the “% Inhibition @2 μM” value was 36% and the “% Inhibition @5 μM” value was 97%.
In the case of `Cc1ccc(C(=O)Nc2ccc(Cl)c(Cl)c2)cc1S(=O)(=O)N1CCC(NS(=O)(=O)c2ccc(COc3ccccc3)cc2)CC1` [JC-1013], the “% Inhibition @2 μM” value is reported as 13% and the “% Inhibition @5 μM” value is reported as −9%.
`Cc1ccc(C(=O)Nc2ccc(Cl)c(Cl)c2)cc1S(=O)(=O)N1CCC(NS(=O)(=O)c2ccc(Br)cc2)CC1` [JC-1014] was tested, and the “% Inhibition @2 μM” value was 100% and the “% Inhibition @5 μM” value was 100%.
With `Cc1ccc(C(=O)Nc2ccc(Cl)c(Cl)c2)cc1S(=O)(=O)NCCCNC(=S)Nc1ccc(F)cc1` [JC-1015] the “% Inhibition @2 μM” value was 11% and the “% Inhibition @5 μM” value was 100%.
`COc1ccc(NC(=S)NC2CCN(S(=O)(=O)c3cc(C(=O)Nc4ccc(Cl)c(Cl)c4)ccc3C)CC2)cc1` [JC-1016] was tested, and the “% Inhibition @2 μM” value was 52% and the “% Inhibition @5 μM” value was 100%.
